Assay [1] deals with pre-ejaculated epididymal murine spermatozoa. The assay is described as follows: Sperm capacitation measured with chlorotetracycline (CTC). The assay is classed as cell-based, mouse. As to conditions: for number of capacitated sperm: P<0.001. On the procedure:
The extent of capacitation was measured using chlorotetracycline (CTC) and the degree of capacitation was assessed in control and adenosine-5′-triphosphate (ATP)-treated samples. All data is expressed as mean+s.e.mean, n=3, ***=P<0.001, Student's t-test).
Sperm suspensions were prepared by releasing the contents of mouse epididymides from 3 PDE11 knockout (KO) and 3 wild type (WT) mice into Tyrodes media. The extent of capacitation was measured using chlorotetracycline (CTC), 750 μM for 15 min at 37° C. The patterns of CTC fluorescence were observed under microscopy (Reference: Fraser, L. R. & Herod, J. E. Expression of capacitation-dependent changes in chlortetracycline fluorescence patterns in mouse spermatozoa requires a suitable glycolysable substrate. J. Reprod. Fert., 1990; 88(2): 611-21). Patterns reflected the functional state of spermatozoa, i.e. capacitated, uncapacitated and acrosome loss.

The subject of assay [2] is recombinant human PDE7. The assay is described as follows: PDE inhibition SPA assay, PDE7. As to conditions: geometric mean of at least 3 determinations; substrate <= 1/3 Km. The assay is classed as biochemical.
For assay [3], the system named is recombinant human PDE8. Kind of assay: PDE inhibition SPA assay, PDE8. Particulars: geometric mean of at least 3 determinations; substrate <= 1/3 Km. The assay is classed as biochemical.
The target of assay [4] is T1, PDE6 isolated from bovine retina (Bos taurus, UniProt P11541+P23439).
T1 construct: PDE6 was isolated from bovine retina; from tissue; host or cells: bovine retina
T1 sequence (P11541 2-856 limits assumed): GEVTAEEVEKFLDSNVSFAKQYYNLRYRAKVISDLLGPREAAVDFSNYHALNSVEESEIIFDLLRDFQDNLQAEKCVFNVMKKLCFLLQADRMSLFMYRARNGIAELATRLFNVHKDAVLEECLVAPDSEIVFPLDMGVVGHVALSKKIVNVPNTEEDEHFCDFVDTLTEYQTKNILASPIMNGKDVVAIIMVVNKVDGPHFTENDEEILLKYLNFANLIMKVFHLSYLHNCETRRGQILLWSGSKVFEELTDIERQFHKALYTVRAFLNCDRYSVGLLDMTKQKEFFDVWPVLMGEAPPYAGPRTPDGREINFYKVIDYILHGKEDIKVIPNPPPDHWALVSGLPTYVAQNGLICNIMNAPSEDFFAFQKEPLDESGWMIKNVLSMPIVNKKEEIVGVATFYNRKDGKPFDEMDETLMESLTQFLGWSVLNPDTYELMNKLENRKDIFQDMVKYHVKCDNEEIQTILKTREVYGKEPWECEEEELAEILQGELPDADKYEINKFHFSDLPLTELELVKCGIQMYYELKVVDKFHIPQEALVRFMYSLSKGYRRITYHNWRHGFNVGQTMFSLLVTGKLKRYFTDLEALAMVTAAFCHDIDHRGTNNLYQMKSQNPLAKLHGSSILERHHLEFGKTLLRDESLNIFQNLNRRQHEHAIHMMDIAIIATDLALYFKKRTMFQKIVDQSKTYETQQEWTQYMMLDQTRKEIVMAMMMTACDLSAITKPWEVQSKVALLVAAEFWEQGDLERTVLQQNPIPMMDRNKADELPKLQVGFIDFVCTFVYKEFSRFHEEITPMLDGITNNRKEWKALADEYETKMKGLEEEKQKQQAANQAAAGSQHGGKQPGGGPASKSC
T1 sequence (P23439 2-850 limits assumed): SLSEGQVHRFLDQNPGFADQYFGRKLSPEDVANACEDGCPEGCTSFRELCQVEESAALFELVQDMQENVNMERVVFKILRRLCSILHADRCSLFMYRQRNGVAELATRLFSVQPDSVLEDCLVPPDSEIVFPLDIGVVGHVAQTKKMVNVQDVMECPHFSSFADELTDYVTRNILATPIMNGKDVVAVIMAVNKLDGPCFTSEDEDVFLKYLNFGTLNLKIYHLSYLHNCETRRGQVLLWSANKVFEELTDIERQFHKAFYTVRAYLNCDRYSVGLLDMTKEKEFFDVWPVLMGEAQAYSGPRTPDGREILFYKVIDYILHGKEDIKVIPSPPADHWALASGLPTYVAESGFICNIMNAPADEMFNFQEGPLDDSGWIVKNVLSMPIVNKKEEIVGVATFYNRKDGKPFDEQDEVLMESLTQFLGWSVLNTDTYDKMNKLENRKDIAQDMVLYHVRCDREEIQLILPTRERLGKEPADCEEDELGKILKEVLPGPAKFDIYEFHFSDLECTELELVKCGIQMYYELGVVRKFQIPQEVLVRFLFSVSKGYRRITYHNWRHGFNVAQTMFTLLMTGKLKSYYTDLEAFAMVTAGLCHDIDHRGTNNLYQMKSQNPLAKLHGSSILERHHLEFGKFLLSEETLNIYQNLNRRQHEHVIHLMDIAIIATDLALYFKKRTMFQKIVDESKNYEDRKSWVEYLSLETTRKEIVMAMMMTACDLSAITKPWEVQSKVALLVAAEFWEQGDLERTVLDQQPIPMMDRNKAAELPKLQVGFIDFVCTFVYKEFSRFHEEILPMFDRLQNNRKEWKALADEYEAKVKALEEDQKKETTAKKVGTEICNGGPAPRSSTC
Kind of assay: PDE inhibition SPA assay, PDE6. The assay is classed as biochemical.

Counter-ions that a name gives are not always drawn. Bounds are passed on as bounds.

Consider `Nc1ncnc2c1ncn2[C@@H]1O[C@H](COP(=O)(O)OP(=O)(O)OP(=O)(O)O)[C@@H](O)[C@H]1O` [ATP, adenosine-5′-triphosphate], for which the “number of capacitated murine spermatozoa” value in assay [1] (1 hr incubation, both PDE11 KO and WT samples, concentration not given) is recorded as “significantly increased”. For the same molecule, the “number of capacitated sperm” value in assay [1] (ATP 1.0 mM, spermatozoa obtained from PDE11 KO mice only) is given as “significantly increased”; in assay [1] (ATP 2.5 mM, 1 hr incubation, all murine spermatozoa samples (PDE11 KO and WT)), “significantly increased”.

Take `CN1CC(=O)N2[C@H](c3ccc4c(c3)OCO4)c3[nH]c4ccccc4c3C[C@@H]2C1=O` [UK-336,017 (IC351), (6R, 12aR)-6-(1,3-benzodioxol-5-yl)-2,3,6,7,12,12a-hexahydro-2-methyl-pyrazino[1′,2′:1,6]pyrido[3,4-b]indole-1,4-dione]: the IC50 in assay [2] and in assay [3] was more than 100 µM throughout.

Consider `CCCc1nn(C)c2c(=O)[nH]c(-c3cc(S(=O)(=O)N4CCN(C)CC4)ccc3OCC)nc12` [Sildenafil, sildenafil], for which the IC50 in assay [2] came to 19.7 µM.

Take `O=C(O)C1CCN(c2nc(NCc3ccc4c(c3)OCO4)c3cc(Cl)ccc3n2)CC1` [UK-227,786 (E4021), 1-[4-[(1,3-benzodioxol-5-ylmethyl)amino]-6-chloro-2-quinazolinyl]-4-piperidinecarboxylic acid, monohydrochloride]: the IC50 in assay [2] is more than 100 µM; in assay [4], 4.7 µM; in assay [3] it was more than 100 µM.

These data come from patent publication US6828473B2, “Modulation of PDE11A activity” (Pfizer Inc., priority 2000, dated 2004).
